Experimental data as given in patent publication US20250215029A1 (Recludix Pharma, Inc., priority 2022, published 2025).

Biological target: T1, pY705-STAT3 in PBMC (Homo sapiens, UniProt P40763)
T1 construct: Cryopreserved Peripheral Blood Mononuclear Cells (PBMC) are from AllCells; host or cells: cryopreserved PBMC
Assay: MSD-pSTAT-PBMC Assay (pSTAT3, IL-6 stimulated)
Assay type: cell-based
Details: PBMC, compound 3 hrs, then 10 ng/mL IL-6 for 10 min; Table 115; read-out: STAT3
In short: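 PBMC (human, cryopreserved, overnight recovery) + cpd 3 hrs → IL-6 10 ng/mL (STAT3) or IL-4 1 ng/mL (STAT6) ×10 min → lysis with protease/phosphatase inhibitors → MSD capture/phospho detection. IC50, variable slope, DMSO-normalized.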

T1 sequence (P40763 whole entry): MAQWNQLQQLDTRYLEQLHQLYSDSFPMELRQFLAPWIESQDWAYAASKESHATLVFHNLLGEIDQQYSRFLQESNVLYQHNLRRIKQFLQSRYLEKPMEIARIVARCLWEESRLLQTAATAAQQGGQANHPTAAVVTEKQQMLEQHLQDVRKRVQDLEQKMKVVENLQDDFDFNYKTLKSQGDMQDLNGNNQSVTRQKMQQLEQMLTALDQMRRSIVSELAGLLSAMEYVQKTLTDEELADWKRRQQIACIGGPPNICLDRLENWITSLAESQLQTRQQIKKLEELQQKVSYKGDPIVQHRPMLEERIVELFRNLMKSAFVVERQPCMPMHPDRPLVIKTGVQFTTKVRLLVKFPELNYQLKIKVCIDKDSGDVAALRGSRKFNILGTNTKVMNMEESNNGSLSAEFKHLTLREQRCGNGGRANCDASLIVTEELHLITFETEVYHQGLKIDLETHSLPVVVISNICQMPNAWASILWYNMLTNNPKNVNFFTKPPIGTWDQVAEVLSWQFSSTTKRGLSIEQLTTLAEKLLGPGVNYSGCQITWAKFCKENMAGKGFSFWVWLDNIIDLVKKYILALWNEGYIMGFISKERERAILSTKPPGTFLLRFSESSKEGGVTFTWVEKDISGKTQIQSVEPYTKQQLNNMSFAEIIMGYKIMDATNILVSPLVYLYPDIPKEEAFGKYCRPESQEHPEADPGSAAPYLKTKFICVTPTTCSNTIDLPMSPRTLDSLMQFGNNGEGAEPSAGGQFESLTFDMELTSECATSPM

Compound | IC50 [nM]
CC(C)OC(=O)[C@H](C)NP(=O)(Cc1ccc2sc(C(=O)N[C@H]3CCC[C@H]4CC[C@@H](C(=O)N5CC(c6cccnc6)C5)N4C3=O)cc2c1)N[C@@H](C)C(=O)OC(C)C [Compound 399, diisopropyl 2,2′-((((2-(((3S,6S,9aS)-5-oxo-3-(3-(pyridin-3-yl)azetidine-1-carbonyl)octahydro-1H-pyrrolo[1,2-a]azepin-6-yl)carbamoyl)benzo [b]thiophen-5-yl)methyl)phosphoryl)bis(azanediyl)) (2S,2′S)-dipropionate] | 1000 to 3000
CCCOC(=O)[C@H](C)NP(=O)(Oc1ccccc1)C(F)(F)c1ccc2sc(C(=O)N[C@H]3CCC[C@H]4CC[C@@H](C(=O)N5CC(c6cccnc6)C5)N4C3=O)cc2c1 (stereo partly drawn) [Compound 400, propyl ((difluoro(2-(((3S,6S,9aS)-5-oxo-3-(3-(pyridin-3-yl)azetidine-1-carbonyl)octahydro-1H-pyrrolo[1,2-a]azepin-6-yl)carbamoyl)benzo [b]thiophen-5-yl)methyl)(phenoxy)phosphoryl)-L-alaninate] | 100 to 1000
O=C(N[C@H]1CCC[C@H]2CC[C@@H](C(=O)N3CC(c4cccnc4)C3)N2C1=O)c1cc2cc(CP(=O)(N[C@@H](CCc3ccccc3)C(=O)OCc3ccccc3)Oc3ccccc3)ccc2s1 (stereo partly drawn) [Compound 401, benzyl (2S)-2-((((2-(((3S,6S,9aS)-5-oxo-3-(3-(pyridin-3-yl)azetidine-1-carbonyl)octahydro-1H-pyrrolo[1,2-a]azepin-6-yl)carbamoyl)benzo [b]thiophen-5-yl)methyl)(phenoxy)phosphoryl)amino)-4-phenylbutanoate] | > 3000
CCCCOC(=O)[C@H](C)NP(=O)(Cc1ccc2sc(C(=O)N[C@H]3CCC[C@H]4CC[C@@H](C(=O)N5CC(c6cccnc6)C5)N4C3=O)cc2c1)N[C@@H](C)C(=O)OCCCC [Compound 420, dibutyl 2,2′-((((2-(((3S,6S,9aS)-5-oxo-3-(3-(pyridin-3-yl)azetidine-1-carbonyl)octahydro-1H-pyrrolo[1,2-a]azepin-6-yl)carbamoyl)benzo [b]thiophen-5-yl)methyl)phosphoryl)bis(azanediyl)) (2S,2′S)-dipropionate] | 100 to 1000
CCOC(=O)[C@H](C)NP(=O)(Cc1ccc2sc(C(=O)N[C@H]3CCC[C@H]4CC[C@@H](C(=O)N5CC(c6cccnc6)C5)N4C3=O)cc2c1)Oc1ccccc1 (stereo partly drawn) [Compound 422, ethyl (((2-(((3S,6S,9aS)-5-oxo-3-(3-(pyridin-3-yl)azetidine-1-carbonyl)octahydro-1H-pyrrolo[1,2-a]azepin-6-yl)carbamoyl)benzo [b]thiophen-5-yl)methyl)(phenoxy)phosphoryl)-L-alaninate] | < 100
CCCOC(=O)[C@H](C)NP(=O)(Cc1ccc2sc(C(=O)N[C@H]3CCC[C@H]4CC[C@@H](C(=O)N5CC(c6cccnc6)C5)N4C3=O)cc2c1)N1CCOCC1 (stereo partly drawn) [Compound 426, propyl (morpholino((2-(((3S,6S,9aS)-5-oxo-3-(3-(pyridin-3-yl)azetidine-1-carbonyl)octahydro-1H-pyrrolo[1,2-a]azepin-6-yl)carbamoyl)benzo [b]thiophen-5-yl)methyl)phosphoryl)-L-alaninate] | > 3000
CCCOC(=O)[C@H](C)NP(=O)(Cc1ccc2sc(C(=O)N[C@H]3CCC[C@H]4CC[C@@H](C(=O)N5CC(c6cccnc6)C5)N4C3=O)cc2c1)OCC(F)(F)F (stereo partly drawn) [Compound 428, propyl (((2-(((3S,6S,9aS)-5-oxo-3-(3-(pyridin-3-yl)azetidine-1-carbonyl)octahydro-1H-pyrrolo[1,2-a]azepin-6-yl)carbamoyl)benzo [b]thiophen-5-yl)methyl)(2,2,2-trifluoroethoxy)phosphoryl)-L-alaninate] | < 100
CCCOC(=O)[C@H](COC)NP(=O)(Cc1ccc2sc(C(=O)N[C@H]3CCC[C@H]4CC[C@@H](C(=O)N5CC(c6cccnc6)C5)N4C3=O)cc2c1)Oc1ccccc1 (stereo partly drawn) [Compound 430, propyl O-methyl-N-(((2-(((3S,6S,9aS)-5-oxo-3-(3-(pyridin-3-yl)azetidine-1-carbonyl)octahydro-1H-pyrrolo[1,2-a]azepin-6-yl)carbamoyl)benzo [b]thiophen-5-yl)methyl)(phenoxy)phosphoryl)-L-serinate] | 100 to 1000
CCCOC(=O)[C@H](CCOC)NP(=O)(Cc1ccc2sc(C(=O)N[C@H]3CCC[C@H]4CC[C@@H](C(=O)N5CC(c6cccnc6)C5)N4C3=O)cc2c1)Oc1ccccc1 (stereo partly drawn) [Compound 431, propyl O-methyl-N-(((2-(((3S,6S,9aS)-5-oxo-3-(3-(pyridin-3-yl)azetidine-1-carbonyl)octahydro-1H-pyrrolo[1,2-a]azepin-6-yl)carbamoyl)benzo [b]thiophen-5-yl)methyl)(phenoxy)phosphoryl)-L-homoserinate] | 100 to 1000
CCCOC(=O)[C@H](Cc1ccccn1)NP(=O)(Cc1ccc2sc(C(=O)N[C@H]3CCC[C@H]4CC[C@@H](C(=O)N5CC(c6cccnc6)C5)N4C3=O)cc2c1)Oc1ccccc1 (stereo partly drawn) [Compound 432, propyl (2S)-2-((((2-(((3S,6S,9aS)-5-oxo-3-(3-(pyridin-3-yl)azetidine-1-carbonyl)octahydro-1H-pyrrolo[1,2-a]azepin-6-yl)carbamoyl)benzo [b]thiophen-5-yl)methyl)(phenoxy)phosphoryl)amino)-3-(pyridin-2-yl)propanoate] | 100 to 1000
CCCOC(=O)[C@H](C)NP(=O)(Cc1ccc2sc(C(=O)N[C@H]3CCC[C@H]4CC[C@@H](C(=O)N5CC(c6cccnc6)C5)N4C3=O)cc2c1)N1CCCC1=O (stereo partly drawn) [Compound 433, propyl (((2-(((3S,6S,9aS)-5-oxo-3-(3-(pyridin-3-yl)azetidine-1-carbonyl)octahydro-1H-pyrrolo[1,2-a]azepin-6-yl)carbamoyl)benzo [b]thiophen-5-yl)methyl)(2-oxopyrrolidin-1-yl)phosphoryl)-L-alaninate] | 1000 to 3000
CCCOC(=O)C1(NP(=O)(Cc2ccc3sc(C(=O)N[C@H]4CCC[C@H]5CC[C@@H](C(=O)N6CC(c7cccnc7)C6)N5C4=O)cc3c2)Oc2ccccc2)CC1 (stereo partly drawn) [Compound 434, propyl 1-((((2-(((3S,6S,9aS)-5-oxo-3-(3-(pyridin-3-yl)azetidine-1-carbonyl)octahydro-1H-pyrrolo[1,2-a]azepin-6-yl)carbamoyl)benzo [b]thiophen-5-yl)methyl)(phenoxy)phosphoryl)amino) cyclopropane-1-carboxylate] | 100 to 1000
CCCOC(=O)[C@H](C)NP(=O)(Oc1ccccc1)C(C)c1ccc2sc(C(=O)N[C@H]3CCC[C@H]4CC[C@@H](C(=O)N5CC(c6cccnc6)C5)N4C3=O)cc2c1 (stereo partly drawn) [Compound 435, propyl ((1-(2-(((3S,6S,9aS)-5-oxo-3-(3-(pyridin-3-yl)azetidine-1-carbonyl)octahydro-1H-pyrrolo[1,2-a]azepin-6-yl)carbamoyl)benzo [b]thiophen-5-yl)ethyl)(phenoxy)phosphoryl)-L-alaninate] | 100 to 1000
CCCOC(=O)[C@H](C)NP(=O)(Cc1ccc2sc(C(=O)N[C@H]3CCC[C@H]4CC[C@@H](C(=O)N5CC(c6cccnc6)C5)N4C3=O)cc2c1)OCC(C)(F)F (stereo partly drawn) [Compound 437, propyl ((2,2-difluoropropoxy)((2-(((3S,6S,9aS)-5-oxo-3-(3-(pyridin-3-yl)azetidine-1-carbonyl)octahydro-1H-pyrrolo[1,2-a]azepin-6-yl)carbamoyl)benzo [b]thiophen-5-yl)methyl)phosphoryl)-L-alaninate] | 100 to 1000
